# Measured values: US20230074545A1, “TREATMENT OF CANCER WITH CDK12/13 INHIBITORS” (Kinnate Biopharma Inc., priority 2019, published 2023)
# How the values were obtained:
# Experiment in all cases: Radiometric kinase panel
# Assay type in all cases: biochemical
# ERK1 = target: T1, ERK1 (Homo sapiens, UniProt P27361)
# T1 construct: either as full-length or enzymatically active fragments; purchased ProQinase GmbH (Reaction Biology)
# Outline: (§1)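 Activity was measured radiometrically from [gamma-33P]-ATP incorporation into substrate. The kinases were recombinant human GST- or His-tagged proteins, full-length or active fragments, expressed in Sf9 or E. coli. Compound in 10% DMSO was added before the enzyme/substrate mix, which started the reaction.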
# FGFR1 = target: T2, FGFR1 (Homo sapiens, UniProt P11362)
# T2 construct: either as full-length or enzymatically active fragments; purchased ProQinase GmbH (Reaction Biology)
# Outline: as §1
# SRPK2 = target: T3, SRPK2 (Homo sapiens, UniProt P78362)
# T3 construct: purchased ProQinase GmbH (Reaction Biology)
# Outline: as §1
# MEK2 = target: T4, MEK2 (Homo sapiens, UniProt P36507)
# T4 construct: either as full-length or enzymatically active fragments; purchased ProQinase GmbH (Reaction Biology)
# Outline: as §1
# TXK = target: T5, TXK (Homo sapiens, UniProt P42681)
# T5 construct: either as full-length or enzymatically active fragments; purchased ProQinase GmbH (Reaction Biology)
# Outline: as §1
# MKK7 = target: T6, MKK7 (Homo sapiens, UniProt O14733)
# T6 construct: either as full-length or enzymatically active fragments; purchased ProQinase GmbH (Reaction Biology); host or cells: Sf9 insect cells or E. coli (not specified per kinase)
# Outline: as §1
# TRKA = target: T7, TRKA (Homo sapiens, UniProt P04629)
# T7 construct: either as full-length or enzymatically active fragments; purchased ProQinase GmbH (Reaction Biology)
# Outline: as §1
# DYRK3 = target: T8, DYRK3 (Homo sapiens, UniProt O43781)
# T8 construct: either as full-length or enzymatically active fragments; purchased ProQinase GmbH (Reaction Biology)
# Outline: as §1
# MST4 = target: T9, MST4 (Homo sapiens, UniProt Q9P289)
# T9 construct: either as full-length or enzymatically active fragments; purchased ProQinase GmbH (Reaction Biology)
# Outline: as §1
# DYRK1B = target: T10, DYRK1B (Homo sapiens, UniProt Q9Y463)
# T10 construct: either as full-length or enzymatically active fragments; purchased ProQinase GmbH (Reaction Biology)
# T10 sequence (Q9Y463 whole entry, the tested form may be a part): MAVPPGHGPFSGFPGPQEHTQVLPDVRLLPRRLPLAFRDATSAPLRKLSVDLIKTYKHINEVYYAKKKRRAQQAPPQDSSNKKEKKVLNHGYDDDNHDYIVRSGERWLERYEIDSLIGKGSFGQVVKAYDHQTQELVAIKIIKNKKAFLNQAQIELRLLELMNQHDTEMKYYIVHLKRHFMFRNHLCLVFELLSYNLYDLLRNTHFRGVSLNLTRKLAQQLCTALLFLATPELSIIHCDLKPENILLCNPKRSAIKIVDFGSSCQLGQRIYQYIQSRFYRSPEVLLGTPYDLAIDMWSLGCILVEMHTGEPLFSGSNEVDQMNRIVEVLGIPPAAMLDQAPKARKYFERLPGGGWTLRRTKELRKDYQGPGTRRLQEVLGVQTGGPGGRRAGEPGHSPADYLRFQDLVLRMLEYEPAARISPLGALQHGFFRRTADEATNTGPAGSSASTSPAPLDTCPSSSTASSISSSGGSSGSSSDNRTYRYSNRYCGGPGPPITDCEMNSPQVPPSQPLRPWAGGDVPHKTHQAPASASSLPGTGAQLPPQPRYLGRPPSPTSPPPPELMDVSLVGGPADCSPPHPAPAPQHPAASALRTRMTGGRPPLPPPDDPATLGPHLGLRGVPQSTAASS
# Outline: as §1
# CSF1R = target: T11, CSF1R (Homo sapiens, UniProt P07333)
# T11 construct: either as full-length or enzymatically active fragments; purchased ProQinase GmbH (Reaction Biology); host or cells: Sf9 insect cells or E. coli
# T11 sequence (P07333 20-972): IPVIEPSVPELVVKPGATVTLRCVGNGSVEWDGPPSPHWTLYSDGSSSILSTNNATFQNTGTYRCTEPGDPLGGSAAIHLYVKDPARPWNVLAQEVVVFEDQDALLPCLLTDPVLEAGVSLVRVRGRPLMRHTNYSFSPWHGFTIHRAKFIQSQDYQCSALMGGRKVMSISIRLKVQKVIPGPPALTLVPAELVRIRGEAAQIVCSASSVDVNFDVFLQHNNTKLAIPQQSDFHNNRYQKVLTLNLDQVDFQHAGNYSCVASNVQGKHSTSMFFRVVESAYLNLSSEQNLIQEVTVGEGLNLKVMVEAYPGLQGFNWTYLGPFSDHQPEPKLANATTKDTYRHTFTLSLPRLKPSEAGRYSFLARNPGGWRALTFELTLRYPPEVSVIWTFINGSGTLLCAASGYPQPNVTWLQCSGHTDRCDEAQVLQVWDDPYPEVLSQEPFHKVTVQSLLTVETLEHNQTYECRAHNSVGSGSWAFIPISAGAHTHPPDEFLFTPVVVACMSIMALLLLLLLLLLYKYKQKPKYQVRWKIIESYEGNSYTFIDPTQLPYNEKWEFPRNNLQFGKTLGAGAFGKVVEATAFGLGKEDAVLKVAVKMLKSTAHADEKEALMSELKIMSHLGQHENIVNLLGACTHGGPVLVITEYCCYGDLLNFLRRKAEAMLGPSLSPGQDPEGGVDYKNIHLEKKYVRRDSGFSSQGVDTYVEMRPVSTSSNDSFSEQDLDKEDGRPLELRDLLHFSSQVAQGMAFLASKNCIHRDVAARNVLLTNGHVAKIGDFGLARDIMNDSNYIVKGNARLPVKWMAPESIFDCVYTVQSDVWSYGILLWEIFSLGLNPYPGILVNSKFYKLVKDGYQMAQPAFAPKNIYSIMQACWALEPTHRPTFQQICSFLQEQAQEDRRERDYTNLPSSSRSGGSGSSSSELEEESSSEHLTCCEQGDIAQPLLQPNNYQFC
# Outline: as §1
# CDK3/CycE1 = target: T12, CDK3/CycE1 (Homo sapiens, UniProt Q00526)
# T12 construct: either as full-length or enzymatically active fragments; purchased ProQinase GmbH (Reaction Biology)
# Outline: as §1
# YES = target: T13, YES (Homo sapiens, UniProt P07947)
# T13 construct: either as full-length or enzymatically active fragments; purchased ProQinase GmbH (Reaction Biology)
# T13 sequence (P07947 whole entry, the tested form may be a part): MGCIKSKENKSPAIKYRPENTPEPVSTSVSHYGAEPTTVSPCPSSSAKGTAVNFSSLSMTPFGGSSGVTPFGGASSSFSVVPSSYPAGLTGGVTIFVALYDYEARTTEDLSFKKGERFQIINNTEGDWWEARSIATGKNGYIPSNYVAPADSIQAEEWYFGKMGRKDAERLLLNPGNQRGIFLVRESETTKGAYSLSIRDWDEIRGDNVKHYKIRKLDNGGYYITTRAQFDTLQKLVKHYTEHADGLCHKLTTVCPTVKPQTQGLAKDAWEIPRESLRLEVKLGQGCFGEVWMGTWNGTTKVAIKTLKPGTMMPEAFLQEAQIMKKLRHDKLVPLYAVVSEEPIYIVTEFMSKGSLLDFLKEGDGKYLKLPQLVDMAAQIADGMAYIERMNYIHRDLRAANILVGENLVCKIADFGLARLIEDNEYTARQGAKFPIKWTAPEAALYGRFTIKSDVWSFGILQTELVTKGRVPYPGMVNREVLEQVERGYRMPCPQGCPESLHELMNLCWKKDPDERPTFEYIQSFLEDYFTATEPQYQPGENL
# Outline: as §1
# HIPK4 = target: T14, HIPK4 (Homo sapiens, UniProt Q8NE63)
# T14 construct: either as full-length or enzymatically active fragments; purchased ProQinase GmbH (Reaction Biology); host or cells: Sf9 insect cells or E. coli
# T14 sequence (Q8NE63 whole entry, the tested form may be a part): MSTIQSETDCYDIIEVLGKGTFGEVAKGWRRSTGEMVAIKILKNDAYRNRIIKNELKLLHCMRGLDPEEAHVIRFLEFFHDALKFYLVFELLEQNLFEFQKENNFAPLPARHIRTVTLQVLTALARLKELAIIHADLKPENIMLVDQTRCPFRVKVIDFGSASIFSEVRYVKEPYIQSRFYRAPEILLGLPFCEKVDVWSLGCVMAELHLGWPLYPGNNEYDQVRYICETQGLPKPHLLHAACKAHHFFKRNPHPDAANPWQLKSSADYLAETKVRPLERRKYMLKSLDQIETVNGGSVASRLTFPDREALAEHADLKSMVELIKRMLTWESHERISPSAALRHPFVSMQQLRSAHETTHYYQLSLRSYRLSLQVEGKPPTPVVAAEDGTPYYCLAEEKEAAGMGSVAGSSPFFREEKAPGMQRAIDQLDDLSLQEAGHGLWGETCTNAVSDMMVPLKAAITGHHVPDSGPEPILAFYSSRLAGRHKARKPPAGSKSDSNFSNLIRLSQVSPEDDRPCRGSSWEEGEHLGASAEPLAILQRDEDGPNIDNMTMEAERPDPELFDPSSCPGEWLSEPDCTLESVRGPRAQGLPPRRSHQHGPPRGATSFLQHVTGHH
# Outline: as §1
# CDK13/CycK = target: T15, CDK13/CycK (Homo sapiens, UniProt Q14004)
# T15 construct: either as full-length or enzymatically active fragments; purchased ProQinase GmbH (Reaction Biology)
# Outline: as §1
# CDK4/CycD3 = target: T16, CDK4/CycD3 (Homo sapiens, UniProt P11802)
# T16 construct: either as full-length or enzymatically active fragments; purchased ProQinase GmbH (Reaction Biology); host or cells: Sf9 insect cells or E. coli (not specified per kinase)
# T16 sequence (P11802 whole entry, the tested form may be a part): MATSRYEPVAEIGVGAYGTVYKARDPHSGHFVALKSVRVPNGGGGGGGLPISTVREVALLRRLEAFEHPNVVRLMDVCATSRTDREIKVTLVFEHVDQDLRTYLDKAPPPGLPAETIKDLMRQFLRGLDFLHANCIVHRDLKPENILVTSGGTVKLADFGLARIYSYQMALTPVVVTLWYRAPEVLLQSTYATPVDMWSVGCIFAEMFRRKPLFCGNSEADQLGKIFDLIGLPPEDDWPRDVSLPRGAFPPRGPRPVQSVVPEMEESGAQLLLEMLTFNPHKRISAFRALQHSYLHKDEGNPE
# T16 sequence (P30281 whole entry partner, the tested form may be a part): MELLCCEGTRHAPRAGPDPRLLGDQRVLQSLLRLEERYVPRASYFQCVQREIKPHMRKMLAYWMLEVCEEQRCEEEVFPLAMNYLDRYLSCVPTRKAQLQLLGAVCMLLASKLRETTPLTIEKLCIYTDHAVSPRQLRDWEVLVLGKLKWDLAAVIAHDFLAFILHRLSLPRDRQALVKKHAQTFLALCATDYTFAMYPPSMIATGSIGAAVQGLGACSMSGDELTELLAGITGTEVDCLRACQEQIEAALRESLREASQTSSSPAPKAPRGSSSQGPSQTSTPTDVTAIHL
# Outline: as §1
# CDK19/CycC = target: T17, CDK19/CycC (Homo sapiens, UniProt Q9BWU1)
# T17 construct: either as full-length or enzymatically active fragments; purchased ProQinase GmbH (Reaction Biology); host or cells: Sf9 insect cells or E. coli (not specified per kinase)
# T17 sequence (Q9BWU1 whole entry, the tested form may be a part): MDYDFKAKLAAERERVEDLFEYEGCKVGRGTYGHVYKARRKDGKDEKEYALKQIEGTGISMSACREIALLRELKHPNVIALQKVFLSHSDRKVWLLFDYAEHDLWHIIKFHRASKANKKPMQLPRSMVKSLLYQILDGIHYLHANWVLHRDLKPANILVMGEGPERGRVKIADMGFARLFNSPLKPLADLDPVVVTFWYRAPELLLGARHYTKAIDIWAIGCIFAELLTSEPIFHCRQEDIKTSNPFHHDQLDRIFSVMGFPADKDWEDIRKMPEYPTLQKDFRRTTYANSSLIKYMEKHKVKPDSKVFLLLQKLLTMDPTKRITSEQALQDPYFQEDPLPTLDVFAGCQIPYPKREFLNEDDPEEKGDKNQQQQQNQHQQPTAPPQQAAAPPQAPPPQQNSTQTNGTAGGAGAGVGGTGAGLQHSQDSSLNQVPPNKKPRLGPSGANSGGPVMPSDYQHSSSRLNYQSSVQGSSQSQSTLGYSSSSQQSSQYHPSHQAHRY
# T17 sequence (P24863 whole entry partner, the tested form may be a part): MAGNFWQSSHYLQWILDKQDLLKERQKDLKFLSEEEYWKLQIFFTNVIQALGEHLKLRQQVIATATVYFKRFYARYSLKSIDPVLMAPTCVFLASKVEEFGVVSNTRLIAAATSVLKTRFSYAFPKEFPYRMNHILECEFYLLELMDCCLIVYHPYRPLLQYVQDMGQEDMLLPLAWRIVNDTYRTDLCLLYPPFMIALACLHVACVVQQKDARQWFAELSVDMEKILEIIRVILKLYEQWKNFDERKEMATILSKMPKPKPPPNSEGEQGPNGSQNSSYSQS
# Outline: as §1
# MEKK2 = target: T18, MEKK2 (Homo sapiens, UniProt Q9Y2U5)
# T18 construct: either as full-length or enzymatically active fragments; purchased ProQinase GmbH (Reaction Biology)
# Outline: as §1
# MAPKAPK2 = target: T19, MAPKAPK2 (Homo sapiens, UniProt P49137)
# T19 construct: either as full-length or enzymatically active fragments; purchased ProQinase GmbH (Reaction Biology); host or cells: Sf9 insect cells or E. coli
# Outline: as §1
# BMX = target: T20, BMX (Homo sapiens, UniProt P51813)
# T20 construct: either as full-length or enzymatically active fragments; purchased ProQinase GmbH (Reaction Biology)
# Outline: as §1
# HCK = target: T21, HCK (Homo sapiens, UniProt P08631)
# T21 construct: purchased ProQinase GmbH (Reaction Biology)
# Outline: as §1
# MATK = target: T22, MATK (Homo sapiens, UniProt P42679)
# T22 construct: purchased ProQinase GmbH (Reaction Biology)
# T22 sequence (P42679 whole entry): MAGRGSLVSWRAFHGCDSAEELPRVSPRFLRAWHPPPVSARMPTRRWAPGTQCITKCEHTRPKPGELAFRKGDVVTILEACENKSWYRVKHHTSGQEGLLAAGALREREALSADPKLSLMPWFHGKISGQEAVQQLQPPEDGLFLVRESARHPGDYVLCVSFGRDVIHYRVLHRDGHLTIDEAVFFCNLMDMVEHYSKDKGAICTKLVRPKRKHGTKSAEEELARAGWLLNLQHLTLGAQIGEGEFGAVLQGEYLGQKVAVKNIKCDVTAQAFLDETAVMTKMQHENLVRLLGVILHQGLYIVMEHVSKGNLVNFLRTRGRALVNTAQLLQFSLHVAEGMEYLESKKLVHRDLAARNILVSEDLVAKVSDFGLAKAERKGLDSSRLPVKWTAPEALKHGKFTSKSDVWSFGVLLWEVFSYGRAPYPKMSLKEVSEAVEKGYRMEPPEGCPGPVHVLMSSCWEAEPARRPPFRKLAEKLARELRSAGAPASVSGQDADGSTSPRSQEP
# Outline: as §1
# PDGFRalpha = target: T23, PDGFRalpha (Homo sapiens, UniProt P16234)
# T23 construct: either as full-length or enzymatically active fragments; purchased ProQinase GmbH (Reaction Biology)
# Outline: as §1
# MTOR = target: T24, MTOR (Homo sapiens, UniProt P42345)
# T24 construct: purchased ProQinase GmbH (Reaction Biology); host or cells: Sf9 insect cells or E. coli (not specified per kinase)
# Outline: as §1
# TAOK2 = target: T25, TAOK2 (Homo sapiens, UniProt Q9UL54)
# T25 construct: either as full-length or enzymatically active fragments; purchased ProQinase GmbH (Reaction Biology)
# Outline: as §1
# VEGFR2 = target: T26, VEGFR2 (Homo sapiens, UniProt P35968)
# T26 construct: either as full-length or enzymatically active fragments; purchased ProQinase GmbH (Reaction Biology); host or cells: Sf9 insect cells or E. coli
# Outline: as §1
# STK25 = target: T27, STK25 (Homo sapiens, UniProt O00506)
# T27 construct: either as full-length or enzymatically active fragments; purchased ProQinase GmbH (Reaction Biology)
# Outline: as §1
# SRPK1 = target: T28, SRPK1 (Homo sapiens, UniProt Q96SB4)
# T28 construct: either as full-length or enzymatically active fragments; purchased ProQinase GmbH (Reaction Biology)
# Outline: as §1
# CAMK2A = target: T29, CAMK2A (Homo sapiens, UniProt Q9UQM7)
# T29 construct: either as full-length or enzymatically active fragments; purchased ProQinase GmbH (Reaction Biology)
# Outline: as §1
# FGR = target: T30, FGR (Homo sapiens, UniProt P09769)
# T30 construct: purchased ProQinase GmbH (Reaction Biology)
# Outline: as §1
smiles,measurement,setting,value
"C=CC(=O)Nc1ccc(C(=O)N2CC[C@@H](Nc3ncc(C#N)cn3)C2)cc1 [Compound 4, (R)-N-(4-(3-((5-cyanopyrimidin-2-yl)amino)pyrrolidine-1-carbonyl)phenyl)acrylamide]",inhibition at 1 µM,ERK1,-4%
same,inhibition at 1 µM,FGFR1,3%
same,inhibition at 1 µM,SRPK2,0%
same,inhibition at 1 µM,MEK2,3%
same,inhibition at 1 µM,TXK,6%
same,inhibition at 1 µM,MKK7,11%
same,inhibition at 1 µM,TRKA,-7%
same,inhibition at 1 µM,DYRK3,-3%
same,inhibition at 1 µM,MST4,6%
same,inhibition at 1 µM,DYRK1B,3%
same,inhibition at 1 µM,CSF1R,14%
same,inhibition at 1 µM,CDK3/CycE1,25%
same,inhibition at 1 µM,YES,-5%
same,inhibition at 1 µM,HIPK4,11%
same,inhibition at 1 µM,CDK13/CycK,87%
same,inhibition at 1 µM,CDK4/CycD3,10%
same,inhibition at 1 µM,CDK19/CycC,10%
same,inhibition at 1 µM,MEKK2,8%
same,inhibition at 1 µM,MAPKAPK2,-24%
same,inhibition at 1 µM,BMX,-4%
same,inhibition at 1 µM,HCK,0%
same,inhibition at 1 µM,MATK,-3%
same,inhibition at 1 µM,PDGFRalpha,7%
same,inhibition at 1 µM,MTOR,1%
same,inhibition at 1 µM,TAOK2,5%
same,inhibition at 1 µM,VEGFR2,12%
same,inhibition at 1 µM,STK25,7%
same,inhibition at 1 µM,SRPK1,-8%
same,inhibition at 1 µM,CAMK2A,-9%
same,inhibition at 1 µM,FGR,-1%
